From patent US9629816B2, “Small molecule therapeutic compounds targeting thioesterase deficiency disorders and methods of using the same” (The United States of America, as represented by the …, priority 2011, dated 2017) come the findings set out here.

Series [1] has as its system PPT1-KO mice. The series can be described thus: TEM analysis of GRODs in brain cells of PPT1-KO mice. In kind it is in vivo, mouse. The following applies: PPT1-KO mice treated from 3 to 6 months of age, 1 mM in drinking water (FIG. 12). Here is the method: All animal experiments were performed according to the institutional guidelines after an animal protocol was approved by the Animal Care and Use Committee of the National Institute of Child Health and Development, National Institutes of Health. PPT1-KO mice (a gift from Dr. S. L. Hofmann, University of Texas Southwestern Medical Center at Dallas, Dallas, Tex., USA) were generated by targeted disruption of the last exon in the PPT1 gene in embryonic stem (ES) cells. These mice were subsequently backcrossed for 10 generations with wild type C57BL/6 mice in order to obtain congenic C57 background and a breeding pair was provided by Dr. Mark Sands to start the inventors' colony. Animals were housed and maintained in a pathogen-free facility. Three-month old PPT-KO mice were given NtBuHA in their drinking water (1 mM NtBuHA and 1 mM NaCl).
Cortical tissue sections were prepared from wild-type mice and untreated- as well as NtBuHA-treated PPT1-KO littermates. Cortical tissues (approximately 1 mm^3) were dissected from those animals, fixed in 2.5% glutaradlehyde in 0.1M sodium cacodylate buffer, pH 7.4 followed by three washing in 0.1 M sodium cacodylate buffer at room temperature. […]

Series [2] deals with PPT1-KO mice. The experiment in a line: Toxicity of dietary NtBuHA in Ppt1-KO mice. In kind it is in vivo, mouse. An excerpt: Thus, toxicity of HA precludes its clinical use. However, HA-derivatives may be non-toxic. […] (See Table 1 for a listing of these HA-derivatives). […] (See Table 3).
In series [3] the test system is PPT1-KO mice. The series can be described thus: Western blot of ER-stress and oxidative-stress markers in brain lysates of PPT1-KO mice. It counts as in vivo, mouse. Here is the method:
Western blot analysis was performed as using standard methodology. Briefly 30 μg of protein was resolved in 4-12% Bis tris gel (Invitrogen) and electro-transferred in PVDF membrane. The membranes were blocked with 5% non fat dried milk for 1 hour at room temperature and were then probed overnight with primary antibody at 4 C. After washing the blots were incubated with horseradish peroxidase conjugated secondary antibody (Santacruz Biotechnology) for 1 hour at room temperature and developed using enhanced chemiluminescences detection reagents (Pierce). Primary antibodies used in this study were caspase-3, caspase-9 (cell signaling) SOD2, catalase, β-Actin (US Biologicals).
It has previously reported that endoplasmic reticulum (ER-) and oxidative-stress contribute to neuropathology in INCL patients. […] Therefore, the inventors sought to determine whether NtBuHA-treatment of PPT1-KO mice ameliorate the ER- and oxidative-stress in brain tissues of these mice. Accordingly, the levels of ER-stress markers Grp-78, Grp-94 and ATF6 were determined by Western blot analysis of brain lysates. […] Western blot analysis of brain lysates from NtBuHA-treated and untreated PPT1-KO mice was also performed to determine the levels of superoxide dismutase-2 (SOD2) and catalase, which increases with elevated oxidative-stress.
A general note: A western blot detects proteins with antibodies after separation by electrophoresis.

A further series has as its system INCL fibroblasts. The experiment in a line: MTT viability of cultured INCL fibroblasts. It counts as cell-based, human. The conditions noted are these: 48 hours of treatment; viability as percent of untreated control (FIG. 4A-C). Here is the method: Ten out of the twelve HA-derivative compounds listed in Table 1 were tested to determine whether they adversely affected the viability of cultured cells from INCL patients. […] Briefly, following treatment with HA-derivatives INCL cells were incubated with Thiazolyl Blue Tetrazolium […] for 4 hours at 37° C. Formazan crystals thus formed were dissolved in acidified isopropanol and absorption was measured at 570 nm. Viability was expressed as percent of untreated control.
Briefly, normal fibroblasts (GM 00498) were obtained from the Coriell Institute of Medical Research, USA. PPT1-deficient INCL fibroblasts were isolated from skin biopsy samples of INCL patients admitted to an ongoing clinical protocol (#01-CH-0086) approved by the Institutional Review Board (IRB) of the National Institute of Child Health and Human Development (NICHD) at the National Institute of Health (NIH). […] The fibroblasts were cultured in the presence or absence of varying concentrations of each of the HA-derivatives for 48 hours, after which the viability of the cells was determined using the MTT-Cell Viability Assay by T. Mossman, (Rapid colorimetric assay for cellular growth and survival. J. Immunol. Method. 65 (1983) 55-63).

With `CC(C)(C)NO` [NtBuHA, N-(tert-Butyl)hydroxylamine], the “GRODs in brain cells” value with PPT1-KO mice [1] was “markedly reduced number of GRODs”. For the same compound, the “toxicity in Ppt1-KO mice” value in the series on PPT1-KO mice [2] was “showed no toxicity”. Also, in the series with PPT1-KO mice [3] (brain lysates vs untreated PPT1-KO mice (FIG. 14B)), the “levels of SOD2 and catalase” value was “significantly reduced the levels of both SOD2 and catalase”. Moreover, the “levels of ER-stress markers Grp-78, Grp-94 and ATF6” value in the series with PPT1-KO mice [3] (brain tissues (FIG. 14A)) is “levels of all three ER-stress markers were reduced”. In addition, in the series on INCL fibroblasts, the “toxicity / viability of INCL cells (MTT)” value is “non-toxic”.
